Two compounds from patent US20120270237A9, “METHODS FOR THE IDENTIFICATION OF KINASE INTERACTING MOLECULES AND FOR THE PURIFICATION OF KINASE PROTEINS” (Cellzone AG, priority 2009, published 2012) can be followed below.

Each structure is given as a SMILES string.

For assay [1], the target named is T1, kinases from mixed HeLa placenta lysates (Homo sapiens, UniProt P08581).
T1 construct: capturing and identification of kinases from mixed HeLa placenta lysates; endogenous in cells; host or cells: mixed lysate of HeLa cells and placenta tissue
Put plainly: Kinobeads competition binding with immobilized CZC25342, mixed HeLa placenta lysates (Example 5, Table 7). The settings on record: kinase MET; 10 μM free compound; HeLa Placenta lysate mix. The method in brief: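 Mixed HeLa/placenta lysate was preincubated with 10 μM free CZC25342 or DMSO, followed by capture on beads bearing immobilized compound. Bound proteins were eluted, separated by SDS-PAGE, trypsin-digested, iTRAQ-labelled and quantified by LC-MS/MS. Percent competition was taken against the DMSO control.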

For another assay, the target named is QIK (Homo sapiens, UniProt Q9H0K1). Briefly: Kinobeads competition binding, HL60 cell lysate. The arrangement: endogenous in cells; host or cells: HL60 cells. The settings on record: 10 μM free compound. The method, then:
(§1) To one aliquot of cell lysate 10 μM of the free compound (FIG. 3, CZC31326) was added and allowed to bind to proteins in the lysate. Then the affinity matrix with the immobilized compound (Example 1) was added to capture proteins that were not interacting with the previously added free compound. Beads were separated from the lysate and bead bound proteins were eluted in SDS sample buffer and subsequently separated by SDS-Polyacrylamide gel electrophoresis (FIG. 4). Suitable gel bands were cut out and subjected to in-gel proteolytic digestion with trypsin. The second lysate aliquot was processed identically, however no free compound was added (DMSO solvent control). Peptides originating from samples 1 and 2 were labeled with iTRAQ reagents (iTRAQ 114 and iTRAQ 117) and the combined samples were analyzed with a nano-flow liquid chromatography system coupled online to a tandem mass spectrometer (LC-MS/MS) experiment followed by iTRAQ reporter ion quantification in the MS/MS spectra (Ross et al., 2004. Mol. Cell. Proteomics 3(12):1154-1169). Further experimental protocols can be found in WO2006/134056 and a previous publication (Bantscheff et al., 2007. Nature Biotechnology 25, 1035-1044). Sepharose-beads with the immobilized compound (100 μl beads per pull-down experiment) were equilibrated in lysis buffer and incubated with a cell lysate sample containing 50 mg of protein on an end-over-end shaker (Roto Shake Genie, Scientific Industries Inc.) for 2 hours at 4° C. Beads were collected, transferred to Mobicol-columns (MoBiTech 10055) and washed with 10 ml lysis buffer containing 0.4% NP40 detergent, followed by 5 ml lysis buffer containing 0.2% detergent. To elute bound proteins, 60 μl 2×SDS sample buffer was added to the column. The column was incubated for 30 minutes at 50° C. and the eluate was transferred to a siliconized microfuge tube by centrifugation. Proteins were then alkylated with 108 mM iodoacetamid. Proteins were then separated by SDS-Polyacrylamide electrophoresis (SDS-PAGE). The peptide extracts of samples treated with 10 μM of free compound (CZC31326) and the solvent control (0.5% DMSO) were treated with different variants of the isobaric tagging reagent (iTRAQ Reagents Multiplex Kit, part number 4352135, Applied Biosystems, Foster City, Calif., USA). The iTRAQ reagents are a set of multiplexed, amine-specific, stable isotope reagents that can label peptides on amino groups in up to four different biological samples enabling simultaneous identification and quantitation of peptides. The iTRAQ reagents were used according to instructions provided by the manufacturer. The samples were resuspended in 10 μl 50 mM TEAB solution, pH 8.5 and 10 μl ethanol were added. The iTRAQ reagent was dissolved in 120 μl ethanol and 10 μl of reagent solution were added to the sample. The labeling reaction was performed at room temperature for one hour on a horizontal shaker and stopped by adding 5 μl of 100 mM TEAB and 100 mM glycine in water. The two labeled sampled were then combined, dried in a vacuum centrifuge and resuspended in 10 μl of 0.1% formic acid in water. Relative protein quantitation was performed using peak areas of iTRAQ reporter ion signals essentially as described in an earlier publication (Bantscheff et al., 2007. Nature Biotechnology 25, 1035-1044).

Another assay addresses AMPKa1 (Homo sapiens, UniProt Q13131). Briefly: Kinobeads competition binding, HL60 cell lysate. The arrangement: endogenous in cells; host or cells: HL60 cells. The settings on record: 10 μM free compound. As for the experimental part: as §1
In a further assay the target is BIKE (Homo sapiens, UniProt Q9NSY1). Put plainly: Kinobeads competition binding, HL60 cell lysate. Details: endogenous in cells; host or cells: HL60 cells. The settings on record: 10 μM free compound. The method, then:
as §1

For the next assay, the target named is CHK1 (Homo sapiens, UniProt O14757). Put plainly: Kinobeads competition binding, HL60 cell lysate. The arrangement: endogenous in cells; host or cells: HL60 cells. As to conditions: 10 μM free compound. As for the experimental part: as §1
For the next assay, the target named is T2, AurA (Homo sapiens, UniProt O14965).
T2 sequence (O14965 1-403): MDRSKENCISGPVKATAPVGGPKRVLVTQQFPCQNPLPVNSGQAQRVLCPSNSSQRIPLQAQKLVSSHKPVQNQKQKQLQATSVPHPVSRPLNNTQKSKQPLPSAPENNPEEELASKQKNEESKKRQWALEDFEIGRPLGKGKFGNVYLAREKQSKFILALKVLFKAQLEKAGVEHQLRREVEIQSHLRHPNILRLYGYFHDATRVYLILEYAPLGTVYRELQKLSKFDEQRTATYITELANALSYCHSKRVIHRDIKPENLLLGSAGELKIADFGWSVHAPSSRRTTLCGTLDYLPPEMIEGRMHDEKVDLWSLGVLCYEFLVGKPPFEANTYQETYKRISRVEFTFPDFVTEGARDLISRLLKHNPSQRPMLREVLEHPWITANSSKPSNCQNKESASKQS
Put plainly: Kinobeads competition binding, HL60 cell lysate. The arrangement: endogenous in cells; host or cells: HL60 cells. The settings on record: 10 μM free compound. As for the experimental part: as §1

For a further assay, the target named is CaMK2g (Homo sapiens, UniProt Q13555). Put plainly: Kinobeads competition binding, HL60 cell lysate. Details: endogenous in cells; host or cells: HL60 cells. The settings on record: 10 μM free compound. As for the experimental part: as §1
In another assay the target is RSK3 (Homo sapiens, UniProt Q15349). Briefly: Kinobeads competition binding, HL60 cell lysate. The arrangement: endogenous in cells; host or cells: HL60 cells. As to conditions: 10 μM free compound. As for the experimental part: as §1
Sequence of RSK3 (Q15349 whole entry): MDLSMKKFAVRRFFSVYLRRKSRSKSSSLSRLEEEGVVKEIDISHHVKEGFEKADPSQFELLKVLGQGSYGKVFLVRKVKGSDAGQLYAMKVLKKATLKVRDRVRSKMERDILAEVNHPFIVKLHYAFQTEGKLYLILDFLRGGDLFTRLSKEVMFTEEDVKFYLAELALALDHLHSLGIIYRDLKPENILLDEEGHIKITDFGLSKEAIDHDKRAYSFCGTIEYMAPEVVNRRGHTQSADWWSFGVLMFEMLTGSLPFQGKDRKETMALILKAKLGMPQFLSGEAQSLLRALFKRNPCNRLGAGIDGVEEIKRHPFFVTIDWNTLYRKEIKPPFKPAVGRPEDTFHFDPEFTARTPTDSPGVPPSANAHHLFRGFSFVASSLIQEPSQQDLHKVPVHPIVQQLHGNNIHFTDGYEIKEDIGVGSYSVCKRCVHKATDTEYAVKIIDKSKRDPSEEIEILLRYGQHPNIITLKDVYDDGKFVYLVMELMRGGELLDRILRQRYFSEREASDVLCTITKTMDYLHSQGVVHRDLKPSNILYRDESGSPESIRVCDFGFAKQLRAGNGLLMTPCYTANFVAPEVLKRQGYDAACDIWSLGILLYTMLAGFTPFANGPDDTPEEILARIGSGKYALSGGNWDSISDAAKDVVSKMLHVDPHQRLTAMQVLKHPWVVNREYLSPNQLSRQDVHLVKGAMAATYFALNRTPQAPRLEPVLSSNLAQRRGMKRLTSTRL

Sequence of BIKE (Q9NSY1 whole entry): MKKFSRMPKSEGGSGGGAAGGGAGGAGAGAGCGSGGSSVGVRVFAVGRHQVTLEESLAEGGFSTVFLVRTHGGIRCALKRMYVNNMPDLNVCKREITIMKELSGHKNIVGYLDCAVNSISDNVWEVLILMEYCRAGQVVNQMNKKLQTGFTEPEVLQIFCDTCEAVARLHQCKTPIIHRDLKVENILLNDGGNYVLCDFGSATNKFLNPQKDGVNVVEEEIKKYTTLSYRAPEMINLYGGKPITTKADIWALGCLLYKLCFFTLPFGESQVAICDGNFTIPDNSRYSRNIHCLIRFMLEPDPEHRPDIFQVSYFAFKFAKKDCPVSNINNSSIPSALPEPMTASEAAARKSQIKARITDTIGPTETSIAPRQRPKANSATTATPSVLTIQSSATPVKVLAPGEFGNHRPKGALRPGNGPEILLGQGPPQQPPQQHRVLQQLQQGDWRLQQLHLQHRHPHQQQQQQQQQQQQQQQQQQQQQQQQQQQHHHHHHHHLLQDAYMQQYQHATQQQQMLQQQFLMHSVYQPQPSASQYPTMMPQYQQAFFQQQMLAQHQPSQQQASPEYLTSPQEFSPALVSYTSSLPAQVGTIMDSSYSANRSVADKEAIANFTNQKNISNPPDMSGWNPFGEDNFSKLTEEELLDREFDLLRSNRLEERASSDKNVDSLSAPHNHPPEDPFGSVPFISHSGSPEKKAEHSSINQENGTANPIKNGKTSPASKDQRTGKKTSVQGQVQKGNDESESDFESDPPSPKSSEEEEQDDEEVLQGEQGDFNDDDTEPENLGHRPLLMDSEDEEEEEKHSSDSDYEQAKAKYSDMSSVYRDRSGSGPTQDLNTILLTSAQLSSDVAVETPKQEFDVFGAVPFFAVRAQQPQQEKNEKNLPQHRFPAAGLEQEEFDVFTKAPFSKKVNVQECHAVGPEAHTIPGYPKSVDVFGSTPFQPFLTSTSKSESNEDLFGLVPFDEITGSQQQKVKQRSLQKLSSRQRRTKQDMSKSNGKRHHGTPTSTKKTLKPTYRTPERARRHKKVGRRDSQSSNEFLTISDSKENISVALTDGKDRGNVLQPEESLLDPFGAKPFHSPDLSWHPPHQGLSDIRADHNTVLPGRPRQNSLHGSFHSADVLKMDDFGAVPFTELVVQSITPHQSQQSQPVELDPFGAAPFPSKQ
Sequence of CaMK2g (Q13555 whole entry): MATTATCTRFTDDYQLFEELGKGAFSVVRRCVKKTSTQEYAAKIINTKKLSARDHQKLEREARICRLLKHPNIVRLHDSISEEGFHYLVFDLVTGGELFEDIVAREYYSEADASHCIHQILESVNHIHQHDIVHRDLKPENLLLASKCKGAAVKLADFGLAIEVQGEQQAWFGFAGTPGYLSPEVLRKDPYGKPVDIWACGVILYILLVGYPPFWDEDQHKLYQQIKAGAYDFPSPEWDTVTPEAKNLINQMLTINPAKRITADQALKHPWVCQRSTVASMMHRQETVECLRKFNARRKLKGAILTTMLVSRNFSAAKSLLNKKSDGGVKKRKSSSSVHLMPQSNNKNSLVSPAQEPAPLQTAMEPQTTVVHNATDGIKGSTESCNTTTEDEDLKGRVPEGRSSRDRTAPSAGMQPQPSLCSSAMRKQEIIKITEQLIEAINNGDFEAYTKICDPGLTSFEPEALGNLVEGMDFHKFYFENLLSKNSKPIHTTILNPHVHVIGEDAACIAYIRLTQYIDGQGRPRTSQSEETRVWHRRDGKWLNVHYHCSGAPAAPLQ
T1 sequence (P08581 25-1390): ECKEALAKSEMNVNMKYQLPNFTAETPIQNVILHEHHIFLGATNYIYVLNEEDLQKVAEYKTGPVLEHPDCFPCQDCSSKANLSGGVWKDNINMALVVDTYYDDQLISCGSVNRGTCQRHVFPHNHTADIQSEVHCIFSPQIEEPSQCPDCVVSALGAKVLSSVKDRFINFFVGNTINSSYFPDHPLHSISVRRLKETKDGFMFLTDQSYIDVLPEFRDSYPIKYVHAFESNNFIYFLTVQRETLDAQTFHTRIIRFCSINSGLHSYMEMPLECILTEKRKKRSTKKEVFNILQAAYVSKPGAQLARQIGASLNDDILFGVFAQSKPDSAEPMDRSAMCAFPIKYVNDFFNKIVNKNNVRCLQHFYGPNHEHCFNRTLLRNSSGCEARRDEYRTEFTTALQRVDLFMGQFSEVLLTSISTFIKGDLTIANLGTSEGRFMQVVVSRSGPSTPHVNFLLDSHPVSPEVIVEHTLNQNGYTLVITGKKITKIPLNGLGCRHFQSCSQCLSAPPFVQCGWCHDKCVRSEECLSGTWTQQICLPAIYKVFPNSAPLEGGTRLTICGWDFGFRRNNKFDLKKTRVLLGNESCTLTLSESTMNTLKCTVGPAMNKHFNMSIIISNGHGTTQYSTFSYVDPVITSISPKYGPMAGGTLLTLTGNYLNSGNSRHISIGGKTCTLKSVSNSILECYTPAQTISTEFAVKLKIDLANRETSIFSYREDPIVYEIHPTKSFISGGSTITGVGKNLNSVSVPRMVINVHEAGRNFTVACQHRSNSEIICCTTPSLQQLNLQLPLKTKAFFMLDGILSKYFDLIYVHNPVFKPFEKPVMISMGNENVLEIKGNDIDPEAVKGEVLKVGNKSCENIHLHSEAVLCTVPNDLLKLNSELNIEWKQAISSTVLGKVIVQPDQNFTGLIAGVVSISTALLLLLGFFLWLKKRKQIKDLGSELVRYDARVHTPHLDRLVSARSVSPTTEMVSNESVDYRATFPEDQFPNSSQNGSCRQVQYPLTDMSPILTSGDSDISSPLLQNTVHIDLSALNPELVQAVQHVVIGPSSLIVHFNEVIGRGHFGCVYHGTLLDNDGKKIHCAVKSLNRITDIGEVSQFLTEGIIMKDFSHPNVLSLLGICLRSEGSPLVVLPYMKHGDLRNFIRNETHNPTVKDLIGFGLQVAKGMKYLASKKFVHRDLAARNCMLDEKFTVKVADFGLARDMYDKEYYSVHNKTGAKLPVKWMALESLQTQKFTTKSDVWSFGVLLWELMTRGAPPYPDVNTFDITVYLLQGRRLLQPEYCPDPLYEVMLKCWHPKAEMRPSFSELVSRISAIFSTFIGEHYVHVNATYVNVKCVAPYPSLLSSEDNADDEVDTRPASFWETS
Sequence of QIK (Q9H0K1 whole entry): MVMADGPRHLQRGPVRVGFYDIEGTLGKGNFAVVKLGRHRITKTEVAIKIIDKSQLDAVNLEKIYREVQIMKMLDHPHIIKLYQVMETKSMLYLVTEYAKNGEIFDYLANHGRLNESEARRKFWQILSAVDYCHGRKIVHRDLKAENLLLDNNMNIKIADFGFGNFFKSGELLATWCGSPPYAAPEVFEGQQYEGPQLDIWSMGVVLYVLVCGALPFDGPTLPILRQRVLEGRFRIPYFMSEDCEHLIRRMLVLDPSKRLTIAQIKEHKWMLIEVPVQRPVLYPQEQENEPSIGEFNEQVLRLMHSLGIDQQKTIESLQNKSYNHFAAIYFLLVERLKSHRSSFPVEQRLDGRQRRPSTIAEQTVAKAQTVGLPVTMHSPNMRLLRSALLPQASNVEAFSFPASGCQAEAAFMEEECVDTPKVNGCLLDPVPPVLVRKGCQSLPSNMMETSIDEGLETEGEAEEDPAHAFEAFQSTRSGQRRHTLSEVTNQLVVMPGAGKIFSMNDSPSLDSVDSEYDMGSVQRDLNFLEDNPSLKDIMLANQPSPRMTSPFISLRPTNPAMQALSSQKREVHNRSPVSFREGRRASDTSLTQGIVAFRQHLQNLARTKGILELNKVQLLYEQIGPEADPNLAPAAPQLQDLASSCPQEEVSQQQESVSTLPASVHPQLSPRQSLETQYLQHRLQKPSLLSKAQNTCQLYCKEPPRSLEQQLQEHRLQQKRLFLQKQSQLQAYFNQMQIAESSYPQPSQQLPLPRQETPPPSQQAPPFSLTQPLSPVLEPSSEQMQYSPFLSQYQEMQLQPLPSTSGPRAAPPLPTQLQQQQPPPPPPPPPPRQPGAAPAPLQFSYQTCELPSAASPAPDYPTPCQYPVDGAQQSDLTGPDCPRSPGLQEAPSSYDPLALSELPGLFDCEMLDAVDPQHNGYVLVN

Turning to `CS(=O)(=O)Nc1ccccc1Nc1nc(Nc2cccc(OCCN)c2)ncc1F` [CZC25342, N-(2-(2-(3-(2-aminoethoxy)phenylamino)-5-fluoropyrimidin-4-ylamino)phenyl)methanesulfonamide], the “Competition % MET” value in assay [1] came to 94.2%.

Turning to `CS(=O)(=O)Nc1ccccc1Nc1nc(Nc2cccc(OCCN)c2)ncc1Cl` [CZC31326, N-(2-(2-(3-(2-aminoethoxy)phenylamino)-5-chloropyrimidin-4-ylamino)phenyl)methanesulfonamide], the inhibition at 10 µM amounted to 94.2% on QIK; 97.7% on AMPKa1; 97.6% on BIKE; 96.6% on AurA; 90.4% on CaMK2g; 96.9% on RSK3. In addition, the Competition % at CHK1 stood at 95.7%.

Usually inhibition stands for how much of the control response was suppressed.
